The source of these data is EP4755888A1 (ILAb Co., Ltd., priority 2023, dated 2025).

Broadly, the IC50 is the midpoint of a concentration-inhibition curve.

The target in the assay is PD-1/PD-L1 (Homo sapiens, UniProt Q9NZQ7). Kind of assay: TR-FRET PD-1/PD-L1 binding inhibition at the molecular level (free proteins). Particulars: Tag1-PD-L1 and Tag2-PD-1 proteins, twelve concentrations from 200 nM, 2 hours at room temperature, read-out: FRET assay (IC50). The gist of the method:
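HTRF read-out at 665/620 nm after 2 h at room temperature. Detection used anti-Tag1 Eu cryptate plus anti-Tag2 XL665 antibodies. Tagged PD-L1 and PD-1 proteins were pre-mixed with compound across twelve […] 1:2 dilutions starting at 200 nM.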
Background: Time-resolved FRET reads energy transfer from a long-lived donor to a nearby acceptor.

Chain of PD-1/PD-L1 (Q9NZQ7 19-238 limits assumed): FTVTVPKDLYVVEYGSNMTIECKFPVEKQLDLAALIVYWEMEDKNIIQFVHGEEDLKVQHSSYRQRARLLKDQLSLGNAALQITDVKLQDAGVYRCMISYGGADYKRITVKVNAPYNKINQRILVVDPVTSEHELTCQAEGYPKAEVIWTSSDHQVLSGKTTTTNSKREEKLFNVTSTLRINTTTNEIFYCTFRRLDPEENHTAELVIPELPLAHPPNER

For `O=C(Nc1cccc(-c2cccc(Nc3nc(C(F)(F)F)nc4cccnc34)c2Cl)c1Cl)c1cc2n(n1)CCC[C@H]2N1CC[C@@H](O)C1` [Compound 334, (R)-N-(2,2'-dichloro-3'-((2-(trifluoromethyl)pyrido[3,2-d]pyrimidin-4-yl)amino)-[1,1'-biphenyl]-3-yl)-4-((R)-3-hydroxypyrrolidin-1-yl)-4,5,6,7-tetrahydropyrazolo[1,5-a]pyridine-2-carboxamide], the IC50 was in the range of 10 to 100 nM.

For the molecule `COc1cc(/C(F)=C/c2cccc(-c3cccc(NC(=O)c4cc5n(n4)CCC[C@@H]5N4CC[C@@H](O)C4)c3Cl)c2Cl)ncc1CN1CC[C@@H](O)C1` [Compound 335, (S)-N-(2,2'-dichloro-3'-((Z)-2-fluoro-2-(5-(((R)-3-hydroxypyrrolidin-1-yl)methyl)-4-methoxypyridin-2-yl)vinyl)-[1,1'-biphenyl]-3-yl)-4-((R)-3-hydroxypyrrolidin-1-yl)-4,5,6,7-tetrahydropyrazolo[1,5-a]pyridine-2-carboxamide], the 50% inhibitory concentration (IC50) lay in the range of 10 to 100 nM.

Take `O=C(Nc1cccc(-c2cccc(Nc3nc(C(F)(F)F)nc4cc(CN5CC[C@@H](O)C5)cnc34)c2Cl)c1Cl)c1cc2n(n1)CCC[C@@H]2N1CCC(C(=O)O)CC1` [Compound 336, 1-((S)-2-((2,2'-dichloro-3'-((7-(((R)-3-hydroxypyrrolidin-1-yl)methyl)-2-(trifluoromethyl)pyrido[3,2-d]pyrimidin-4-yl)amino)-[1,1'-biphenyl]-3-yl)carbamoyl)-4,5,6,7-tetrahydropyrazolo[1,5-a]pyridin-4-yl)piperidine-4-carboxylic acid]: the 50% inhibitory concentration (IC50) is 10 to 100 nM.

Regarding `O=C(Nc1cccc(-c2cccc(Nc3nc(C(F)(F)F)nc4cc(CN5CC[C@@H](O)C5)cnc34)c2Cl)c1Cl)c1cc2n(n1)CCC[C@H]2N1CCC(C(=O)O)CC1` [Compound 337], the IC50 lay within 10 to 100 nM.

As for `O=C(Nc1cccc(-c2cccc(Nc3nc(C(F)(F)F)nc4cc(CN5CC[C@@H](O)C5)cnc34)c2Cl)c1Cl)c1cc2n(n1)CCC[C@@H]2N1CC[C@@H](O)C1` [Compound 338, (S)-N-(2,2'-dichloro-3'-((7-(((R)-3-hydroxypyrrolidin-1-yl)methyl)-2-(trifluoromethyl)pyrido[3,2-d]pyrimidin-4-yl)amino)-[1,1'-biphenyl]-3-yl)-4-((R)-3-hydroxypyrrolidin-1-yl)-4,5,6,7-tetrahydropyrazolo[1,5-a]pyridine-2-carboxamide], the concentration for half-maximal inhibition (IC50) fell in the range of 10 to 100 nM.

As to `O=C(Nc1cccc(-c2cccc(Nc3nc(C(F)(F)F)nc4cc(CN5CC[C@@H](O)C5)cnc34)c2Cl)c1Cl)c1cc2n(n1)CCC[C@H]2N1CC[C@@H](O)C1` [Compound 339, (R)-N-(2,2'-dichloro-3'-((7-(((R)-3-hydroxypyrrolidin-1-yl)methyl)-2-(trifluoromethyl)pyrido[3,2-d]pyrimidin-4-yl)amino)-[1,1'-biphenyl]-3-yl)-4-((R)-3-hydroxypyrrolidin-1-yl)-4,5,6,7-tetrahydropyrazolo[1,5-a]pyridine-2-carboxamide], the half-inhibitory concentration (IC50) lay in the range of 10 to 100 nM.

Turning to `CC(C)(N[C@H]1CCCn2nc(C(=O)Nc3cccc(-c4cccc(Nc5nc(C(F)(F)F)nc6cc(CN7CC[C@@H](O)C7)cnc56)c4Cl)c3Cl)cc21)C(=O)O` [Compound 340, 2-(((S)-2-((2,2'-dichloro-3'-((7-(((R)-3-hydroxypyrrolidin-1-yl)methyl)-2-(trifluoromethyl)pyrido[3,2-d]pyrimidin-4-yl)amino)-[1,1'-biphenyl]-3-yl)carbamoyl)-4,5,6,7-tetrahydropyrazolo[1,5-a]pyridin-4-yl)amino)-2-methylpropanoic acid], the concentration for half-maximal inhibition (IC50) fell in the range of 10 to 100 nM.

In the case of `CC(C)(N[C@@H]1CCCn2nc(C(=O)Nc3cccc(-c4cccc(Nc5nc(C(F)(F)F)nc6cc(CN7CC[C@@H](O)C7)cnc56)c4Cl)c3Cl)cc21)C(=O)O` [Compound 341, 2-(((R)-2-((2,2'-dichloro-3'-((7-(((R)-3-hydroxypyrrolidin-1-yl)methyl)-2-(trifluoromethyl)pyrido[3,2-d]pyrimidin-4-yl)amino)-[1,1'-biphenyl]-3-yl)carbamoyl)-4,5,6,7-tetrahydropyrazolo[1,5-a]pyridin-4-yl)amino)-2-methylpropanoic acid], the IC50 was in the range of 10 to 100 nM.
